The record followed here is patent US20090022739A1, “MODULATING THE KV1.1 VOLTAGE-GATED POTASSIUM CHANNEL IN T-CELLS FOR REGULATING THE […] AND SECRETION OF TUMOR NECROSIS FACTOR ALPHA (tnf-ALPHA) AND TREATING HUMAN DISEASE OR INJURIES MEDIATED BY […] HIGH OR LOW LEVELS OF TNF-ALPHA” (priority 2005, published 2009).

In data set [1] the test system is TNF-α mRNA. The data set is described as follows: RT-PCR for TNF-α mRNA in normal human T-cells. In kind it is cell-based. To be noted: 100 nM DTX-K for 24 hr; normalized to S14; FIG. 3A. Here is the method: RT-PCR for TNF-α and Kv1.1: Total RNA was prepared according to Tri-Reagent protocol (MRC, Cincinnati, Ohio). First-strand cDNA was synthesized by Reverse Transcription System (Promega, Madison, Wis.). RT-PCR was conducted in a 50 μl reaction mixture containing 50 ng cDNA, 5 μl of X10 Optibuffer (Bioline, London, UK), 3 μl of 50 mM MgCl2, 2.5 μl of 10 mM dNTP mix (Promega), 4U of Bio-X-act DNA Polymerase (Bioline). For TNF-α/S14 parallel amplification, 2 μl of each TNF-α primer (10 pmol/μl) and 0.25 μl of each S14 primer (10 pmol/μl) were used. For Kv1.1/S14 parallel amplification, 5 μl of each Kv1.1 primer (100 pmol/μl) and 2.5 μl of each S14 primer (10 pmol/μl) were used. […]; Conditions for TNF-α PCR were: 94° C. for 1 minute, 63° C. for 40 seconds and 72° C. for 40 seconds (29 cycles). Conditions for Kv1.1 PCR were: 94° C. for 3 minutes (one cycle); 94° C. for 1 minute, 60/57/54/51/48° C. for 2 minutes and 72° C. for 3 minutes (three cycles each); 94° C. for 1 minute, 50° C. for 2 minutes and 72° C. for 3 minutes (25 cycles). […]
The question of whether selective block of Kv1.1 subunit containing channels in T-cells elevates not only the levels of the TNF-α protein, but also TNF-α mRNA was studied next. […] Bars at the bottom represent fold increase TNF-α mRNA calculated following densitometric analysis and normalization of the corresponding RT-PCR bands of TNF-α/S14. […]

Data set [2] deals with NF-κB p50. The experiment in a line: Immunofluorescent histochemistry for NF-κB p50 nuclear translocation. The format is cell-based, human. To be noted: 100 nM DTX-K; 7 minutes; FIG. 3C. Here is the method: Immunofluorescent Histochemistry for NF-κB: Freshly-isolated normal human T-cells that were pretreated or not with DTX-K (100 nM for 7, 15, 30 and 60 minutes), were pelleted (1200 g, 10 minutes, […]), suspended in PBS at 1×10^6 cells/ml, centrifuged (1200 g, 10 minutes), fixed on glass slide by cytospin (250 μl/slide, 1500 rpm, 5 minutes; Shandon Elliot, London, UK), permeablized (200 μl/slide of a solution containing 100 ml 95% methanol and 3 ml acetic acid glacial), and incubated in a blocking medium (200 μl/slide) containing 10% normal goat serum, 2% BSA, 1% glycine and 0.5% triton X-100. The cells were then stained with a rabbit anti-human NF-κB p50 polyclonal Ab (80 μl of 1:50 dilution for 30 minutes at room temperature; Santa Cruz Biotechnology, Santa Cruz, Calif.). […]
In case of the TNF-α gene, the observed importance of NF-κB for the expression of the TNFα gene may depend on the cell type and the segment of the enhancer/promoter analyzed (Siebenlist et al, 1990). […]
In the experiment the results of which are shown in FIG. 3C, normal human T-cells were either left untreated or treated with 100 nM DTX-K for 7, 15, 30 and 60 minutes (see DTX-K treatment time above each respective column). […] Representative photographs at ×100 magnification are shown for NF-κB p50 green fluorescence (upper panel), nuclei blue fluorescence (middle panel), and overlay of both (lower panel). […]

The subject of data set [3] is human T-cells. Conditions: data not shown.

For the substance “Dendrotoxin-K (AAKYCKLPLRIGPCKRKIPSFYYKWKAKQCLPFDYSGCGGNANRFKTIEECRRTCVG) [DTX-K]”, the “TNFα mRNA levels” value in data set [1] is “augmented”. Moreover, the “NF-κB p50 staining of the cell nucleus” value in data set [2] was “clearly positive for NF-κB p50”. In addition, in data set [3], the “effect on cell survival or proliferation” value is “no significant effect”.
